{"source": "patent US20250282895A1", "about": "“PHARMACEUTICAL COMPOSITIONS OF CHEMOTHERAPEUTIC AGENTS BASED ON BETA-S[…]-AMINO ACID DERIVATIVES” (priority 2021, published 2025)", "assay": "Comparative stability, Formulation 4 (based on Treanda, mannitol)", "assay_type": "physicochemical", "protocol": "The stability of Compound (1c) either as the HCl salt or as the free base was compared to the stability of melphalan HCl and/or bendamustine HCl in various pharmaceutical formulations and at different concentrations and at temperatures of 0° C. or 25° C.\nThe stability of the compounds in the pharmaceutical formulations was determined at concentrations within the range from 0.4 mg/mL to 0.5 mg/mL, from 0.9 mg/mL to 1.1 mg/mL, and from 1.8 mg/mL to 2.1 mg/mL.\nThe amount of the active pharmaceutical ingredient (API) (Compound (1c), melphalan or bendamustine) in the pharmaceutical formulations at different times during storage was determined using HPLC/UV as described in detail for Example 4 and Example 5.\nTreanda® is an injectable formulation of bendamustine hydrochloride, 1H-benzimidazole-2-butanoic acid, 5-[bis(2-chloroethyl)amino]-1-methyl-, 4-(5-(bis(2-chloroethyl)amino)-1-methyl-1H-benzo[d]imidazol-2-yl) butanoic acid monohydrochloride approved by the FDA. Treanda® for injection is provided in a vial containing either 25 or 100 mg of bendamustine HCl as a white to off-white lyophilized powder. Each vial contains either 25 mg or 100 mg of bendamustine hydrochloride and 42.5 mg or 170 mg of mannitol, USP, which is reconstituted in either 0.9% sodium chloride injection, USP, or 2.5% dextrose/0.45% sodium chloride solution injection, USP to a final concentration of 0.2 mg/mL-0.6 mg/mL and adjusted to a pH from 2.5 to 3.5.\nA series of 12 mL glass vials each containing 12.5 mg (0.0317 mmol) of bendamustine mono-hydrochloride salt (C16H21C12N3O2·HCl, 394.72 g/mol; MedKoo, 200470) (corresponding to 11.3 mg of bendamustine as the free base) were prepared through weighing out the commercial compound into the vials. To each of the vials either containing bendamustine mono-hydrochloride salt was added 21.3 mg (0.117 mmol) of D-mannitol (C6H14O6, MW 182.17 g/mol; SigmaAldrich, M1902). The mixtures were dissolved in 2.0 mL of double distilled water (dd-H2O) (Arrowhead), the clear colorless solutions were frozen at −78° C. (dry ice/acetone bath), and the solvents were lyophilized off at about 100 mTorr within about 16 h to afford colorless solids.\nA stock solution was prepared by dissolving 85.0 mg (0.255 mmol) of Compound (1c) (free base) and 170.4 mg of D-mannitol (0.935 mmol) (C6H14O6, MW 182.17 g/mol; SigmaAldrich, M1902), and 0.503 mL of 0.5072 M aq. HCl (0.255 mmol, 1.0 eq.) (Fluka, 318957) in about 16.0 mL of a mixture of acetonitrile/water (1:1, v/v) with vortexing in clean graduated glass cylinder (25 mL) to afford a stock solution of Compound (1c) as a mono-HCl salt of a concentration of 5.313 mg/mL and a D-mannitol concentration of 10.65 mg/mL. This solution was filtered through a 0.22 μm PTFE syringe filter into a clean 25 mL Erlenmeyer flask. Aliquots of 2.0 mL (2× 1.0 mL; 2× 5.313 mg) of this stock solution were rapidly pipetted into clean 12 mL scintillation vials. The aliquots were frozen at −78° C. (dry ice/acetone bath) and lyophilized at about 100 mTorr for about 16 hours to provide test vials each containing 11.8 mg (0.0319 mmol) of Compound (1c) mono-hydrochloride salt (mono-HCl salt) (corresponding to 10.6 mg of Compound (1c) as a free base) and 21.3 mg (0.117 mmol) of D-mannitol as a colorless powdery solid.\nThe materials in the vials were dissolved 2.5 mL of double-distilled water (dd-H2O) (Arrowhead) to provide clear colorless, non-viscous stock solutions of a concentration of 4.24 mg/mL of Compound (1c) as the monohydrochloride salt or 4.54 mg/mL of bendamustine as the mono-hydrochloride salt, respectively.\n1.0 mL of the stock solution containing 4.24 mg/mL of Compound (1c) as the monohydrochloride salt was diluted with 9.0 mL of 0.9% saline to afford 10.0 mL of a test solution of a concentration of 0.424 mg/mL of Compound (1c) as the monohydrochloride salt and with a pH of about 4. […]", "note": "Where a name gives a salt, the structure may show the parent alone."}
{"smiles": "Cc1ccc(N(CCCl)CCCl)cc1C[C@H](N)CC(=O)O", "note": "[Compound (1c)•HCl, (S)-3-amino-4-(5-(bis(2-chloroethyl)amino)-2-methylphenyl) butanoic acid mono hydrochloride salt]", "values": [{"measurement": "% API", "setting": "Formulation 4, 0° C., 0.5 hours, 0.4-0.5 mg/mL, pH 4-5 (bendamustine), pH 4 (Compound (1c)•HCl)", "result": 92, "unit": "%"}, {"measurement": "% API", "setting": "Formulation 4, 0° C., 0.5 hours, 0.9-1.1 mg/mL, pH 4", "result": 92, "unit": "%"}, {"measurement": "% API", "setting": "Formulation 4, 0° C., 0.5 hours, 1.8-2.1 mg/mL, pH 4", "result": 93, "unit": "%"}, {"measurement": "% API", "setting": "Formulation 4, 0° C., 2.0 hours, 0.4-0.5 mg/mL, pH 4-5 (bendamustine), pH 4 (Compound (1c)•HCl)", "result": 78, "unit": "%"}, {"measurement": "% API", "setting": "Formulation 4, 0° C., 2.0 hours, 0.9-1.1 mg/mL, pH 4", "result": 73, "unit": "%"}, {"measurement": "% API", "setting": "Formulation 4, 0° C., 2.0 hours, 1.8-2.1 mg/mL, pH 4", "result": 80, "unit": "%"}, {"measurement": "% API", "setting": "Formulation 4, 25° C., 0.5 hours, 0.4-0.5 mg/mL, pH 4-5 (bendamustine), pH 4 (Compound (1c)•HCl)", "result": 95, "unit": "%"}, {"measurement": "% API", "setting": "Formulation 4, 25° C., 0.5 hours, 0.9-1.1 mg/mL, pH 4-5 (bendamustine), pH 4 (Compound (1c)•HCl)", "result": 95, "unit": "%"}, {"measurement": "% API", "setting": "Formulation 4, 25° C., 0.5 hours, 1.8-2.1 mg/mL, pH 4-5 (bendamustine), pH 4 (Compound (1c)•HCl)", "result": 92, "unit": "%"}, {"measurement": "% API", "setting": "Formulation 4, 25° C., 2.0 hours, 0.4-0.5 mg/mL, pH 4-5 (bendamustine), pH 4 (Compound (1c)•HCl)", "result": 81, "unit": "%"}, {"measurement": "% API", "setting": "Formulation 4, 25° C., 2.0 hours, 0.9-1.1 mg/mL, pH 4-5 (bendamustine), pH 4 (Compound (1c)•HCl)", "result": 81, "unit": "%"}, {"measurement": "% API", "setting": "Formulation 4, 25° C., 2.0 hours, 1.8-2.1 mg/mL, pH 4-5 (bendamustine), pH 4 (Compound (1c)•HCl)", "result": 75, "unit": "%"}]}
